According to US20210139497A1, “THIENOCYCLIC COMPOUND AND SYNTHESIS METHOD THEREFOR AND APPLICATION THEREOF” (SHANGHAI YUYAO BIOTECH LTD., priority 2017, published 2021):

Tests used:
[1] = target: T1, human PGE2 receptor EP4 subtype (hEP4) (Homo sapiens, UniProt P35408); assay: Calcium flux of human prostaglandin E2 receptor EP4 subtype; assay type: cell-based; conditions: CHO-K1-Gα16 cells overexpressing hEP4, calcium flux activated by prostaglandin E2; read-out: hEP4 Ca^2+ IC50
T1 construct: expressed in transfected cells; host or cells: CHO-K1-Gα16
Protocol: (§1) CHO-K1-Gα16 cells at the logarithmic growth phase were transfected with EP4 overexpressing vector by Lipofectamine 2000 and then seeded in a 96-well plate (Falcon, CA) and cultured at 20000 cells per 100 μL culture medium overnight. On the second day, every single well were added with 100 μL calcium 5 detection reagents (Molecular Devices) and incubated in incubator at 37° C., 5% CO2 for 45 minutes. The compounds were diluted in HBSS detection buffer, then added to 96-well plates. After incubated for 20 min at room temperature away from light, certain concentration of prostaglandin E2 was used to activate calcium flux of cells for detection (Flexstation 3, MD, CA).
(§2) Calculate the IC50 of the compounds of the invention in inhibiting the calcium flux of human PGE2 receptor EP4 subtype (hEP4) and mouse PGE2 receptor EP4 subtype (mEP4) (i.e. the concentration of drugs at which the intracellular Ca^2+ flux is inhibited by half after overexpressing hEP4 and mEP4 receptors in CHO-K1-Gα16 cells). The IC50 of the drugs were calculated using GraphPad Prism 5.

[2] = target: T2, mouse PGE2 receptor EP4 subtype (mEP4) (Mus musculus, UniProt P32240); assay: Calcium flux of mouse prostaglandin E2 receptor EP4 subtype; assay type: cell-based; conditions: CHO-K1-Gα16 cells overexpressing mEP4, calcium flux activated by prostaglandin E2; read-out: mEP4 Ca^2+ IC50
T2 construct: expressed in transfected cells; host or cells: CHO-K1-Gα16
Protocol: as §1, §2

[3] = target: T3, human prostaglandin E2 receptor EP1 subtype (Homo sapiens, UniProt P34995); assay: Calcium flux of human prostaglandin E2 receptor EP1 subtype; assay type: cell-based; conditions: CHO-K1-Gα16 cells overexpressing human EP1, activated by prostaglandin E2; read-out: hEP1 Ca^2+ IC50
T3 construct: expressed in transfected cells; host or cells: CHO-K1-Gα16
T3 sequence (P34995 1-402): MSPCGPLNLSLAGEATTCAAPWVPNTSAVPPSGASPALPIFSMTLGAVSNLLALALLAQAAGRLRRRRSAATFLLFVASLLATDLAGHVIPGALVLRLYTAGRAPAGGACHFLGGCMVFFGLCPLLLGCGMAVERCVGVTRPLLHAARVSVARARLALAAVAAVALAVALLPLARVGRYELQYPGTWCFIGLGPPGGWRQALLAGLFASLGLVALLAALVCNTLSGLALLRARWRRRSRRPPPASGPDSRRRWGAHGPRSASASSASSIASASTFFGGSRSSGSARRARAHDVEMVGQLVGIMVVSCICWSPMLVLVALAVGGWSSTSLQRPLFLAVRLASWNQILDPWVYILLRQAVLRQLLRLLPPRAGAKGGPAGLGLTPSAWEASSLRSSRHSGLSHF
Protocol: (§3) CHO-K1-Gα16 cells at the logarithmic growth phase were transfected with human prostaglandin E2 Receptor subtypes EP1, EP2 or EP3 overexpressing vector by Lipofectamine 2000, then seeded in a 96-well plate (Falcon, CA) at a density of 20000 cells per 100 μL culture medium for overnight culture. On the second day, every single well were added with 100 μL calcium 5 detection reagents (Molecular Devices) and incubated in incubator at 37° C., 5% CO2 for 45 minutes. The compounds were diluted with HBSS detection buffer, then were added to 96-well plates. After 20 min incubation at room temperature in the dark, prostaglandin E2 at certain concentration was used to activate calcium flux of cells for detection (Flexstation 3, MD, CA).
(§4) Calculate the IC50 of the compounds of the invention in inhibiting the calcium flux of human EP1, EP2, and EP3 receptor (i.e. the concentration of drugs at which the intracellular Ca^2+ flux being inhibited by half after overexpressing human EP1, EP2, and EP3 receptors in CHO-K1-Gα16 cells). The IC50 of the drugs were calculated using GraphPad Prism 5.

[4] = target: T4, human prostaglandin E2 receptor EP2 subtype (Homo sapiens, UniProt P43116); assay: Calcium flux of human prostaglandin E2 receptor EP2 subtype; assay type: cell-based; conditions: CHO-K1-Gα16 cells overexpressing human EP2, activated by prostaglandin E2; read-out: hEP2 Ca^2+ IC50
T4 construct: expressed in transfected cells; host or cells: CHO-K1-Gα16
Protocol: as §3, §4

[5] = target: T5, human prostaglandin E2 receptor EP3 subtype (Homo sapiens, UniProt P43115); assay: Calcium flux of human prostaglandin E2 receptor EP3 subtype; assay type: cell-based; conditions: CHO-K1-Gα16 cells overexpressing human EP3, activated by prostaglandin E2; read-out: hEP3 Ca^2+ IC50
T5 construct: expressed in transfected cells; host or cells: CHO-K1-Gα16
T5 sequence (P43115 1-390): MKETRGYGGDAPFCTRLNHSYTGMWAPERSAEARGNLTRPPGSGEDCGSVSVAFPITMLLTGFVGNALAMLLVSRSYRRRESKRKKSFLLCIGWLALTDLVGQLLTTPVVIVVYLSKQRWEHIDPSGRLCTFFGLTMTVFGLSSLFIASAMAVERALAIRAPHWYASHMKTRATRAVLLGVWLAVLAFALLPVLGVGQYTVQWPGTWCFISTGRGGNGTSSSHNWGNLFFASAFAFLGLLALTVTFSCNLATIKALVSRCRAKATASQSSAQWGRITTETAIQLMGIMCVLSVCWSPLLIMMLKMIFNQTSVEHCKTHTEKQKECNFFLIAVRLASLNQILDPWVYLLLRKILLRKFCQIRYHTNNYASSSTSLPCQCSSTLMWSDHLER
Protocol: as §3, §4

[6] = Cytotoxicity evaluation (CCK8), LLC; conditions: mouse, LLC lung cancer cells
Protocol: (§5) Cells with a density of 2000-8000 cells per 100 μL medium were seeded in 96-well plates (Falcon, CA) and incubated for 24 hours, then treated with drugs having different concentration gradient (at least 4 replicates per concentration) and incubated at 37° C. in 5% CO2 incubator for 72 hours. Then cell viability was detected by CCK8 method. That is to say, add 10 μL CCK8 to each well and incubate for 0.33-2 h, and the OD values are read by microplate reader at 450 nm. The inhibition rate on cell survival of compounds with each concentration were calculated.
(§6) Inhibition rate on cell survival=(OD value of groups with each concentration/OD
(§7) value of control group)×100%±standard deviation.
(§8) The IC50 of drugs were calculated using GraphPad Prism 5.0.

[7] = Cytotoxicity evaluation (CCK8), 293; conditions: human
[8] = Cytotoxicity evaluation (CCK8), MOSJ; conditions: mouse, MOSJ osteosarcoma cells
Protocol: as §5, §6, §7, §8

[9] = Cytotoxicity evaluation (CCK8), CT26; conditions: mouse, CT26 intestinal cancer cells
Protocol: as §5, §6, §7, §8

[10] = Cytotoxicity evaluation (CCK8), EMT-6; conditions: mouse, EMT-6 breast cancer cells
Protocol: as §5, §6, §7, §8

[11] = Cytotoxicity evaluation (CCK8), PANC02; conditions: mouse, PANC02 pancreatic cancer cells
Protocol: as §5, §6, §7, §8

T1 sequence (P35408 whole entry): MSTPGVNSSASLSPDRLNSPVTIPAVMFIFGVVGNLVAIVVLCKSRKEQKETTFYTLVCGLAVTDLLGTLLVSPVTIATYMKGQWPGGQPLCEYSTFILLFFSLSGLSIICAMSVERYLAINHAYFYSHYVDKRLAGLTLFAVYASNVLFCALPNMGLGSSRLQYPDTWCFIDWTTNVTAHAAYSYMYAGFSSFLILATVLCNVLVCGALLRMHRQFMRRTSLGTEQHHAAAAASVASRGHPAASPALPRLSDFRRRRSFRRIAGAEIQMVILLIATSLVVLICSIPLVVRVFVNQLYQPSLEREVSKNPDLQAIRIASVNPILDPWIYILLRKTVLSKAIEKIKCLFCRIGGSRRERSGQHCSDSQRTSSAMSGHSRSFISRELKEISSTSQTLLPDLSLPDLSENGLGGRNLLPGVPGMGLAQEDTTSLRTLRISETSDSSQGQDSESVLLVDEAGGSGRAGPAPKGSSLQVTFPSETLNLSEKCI
T4 sequence (P43116 whole entry): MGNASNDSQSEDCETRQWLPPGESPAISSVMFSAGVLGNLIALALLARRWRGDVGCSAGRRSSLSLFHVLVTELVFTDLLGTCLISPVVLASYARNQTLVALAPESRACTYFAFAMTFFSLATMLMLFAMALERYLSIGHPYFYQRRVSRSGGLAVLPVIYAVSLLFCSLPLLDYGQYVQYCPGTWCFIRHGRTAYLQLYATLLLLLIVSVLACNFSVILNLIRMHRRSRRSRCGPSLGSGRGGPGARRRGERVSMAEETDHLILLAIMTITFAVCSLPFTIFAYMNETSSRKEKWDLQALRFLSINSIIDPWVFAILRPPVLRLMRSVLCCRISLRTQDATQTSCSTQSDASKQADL
T2 sequence (P32240 whole entry): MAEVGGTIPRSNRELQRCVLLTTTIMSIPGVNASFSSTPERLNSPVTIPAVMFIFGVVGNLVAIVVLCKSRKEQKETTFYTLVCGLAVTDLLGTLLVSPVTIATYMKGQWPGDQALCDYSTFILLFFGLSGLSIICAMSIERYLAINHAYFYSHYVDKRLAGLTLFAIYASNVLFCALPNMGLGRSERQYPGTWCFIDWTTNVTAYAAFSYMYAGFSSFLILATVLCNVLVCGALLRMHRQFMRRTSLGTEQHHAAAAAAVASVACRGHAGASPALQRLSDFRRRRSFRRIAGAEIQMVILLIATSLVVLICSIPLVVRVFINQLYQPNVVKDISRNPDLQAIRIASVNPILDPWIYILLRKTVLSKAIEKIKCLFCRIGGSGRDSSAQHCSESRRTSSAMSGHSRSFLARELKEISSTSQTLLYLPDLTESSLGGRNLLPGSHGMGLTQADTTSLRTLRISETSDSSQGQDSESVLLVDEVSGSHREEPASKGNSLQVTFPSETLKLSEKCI

Structure (SMILES)	IC50 [1] [µM]	IC50 [2] [µM]	IC50 [3] [µM]	IC50 [4] [µM]	IC50 [5] [µM]	IC50 at 72 h [6] [µM]	IC50 at 72 h [7] [µM]	IC50 at 72 h [8] [µM]	IC50 at 72 h [9] [µM]	IC50 at 72 h [10] [µM]	IC50 at 72 h [11] [µM]
C[C@H](NC(=O)c1c(CCc2cccc(C(F)(F)F)c2)sc2c1CCOC2)c1ccc(C(=O)O)cc1 [YJ112, (S)-4-(1-(2-(3-(trifluoromethyl)phenethyl)-5,7-dihydro-4H-thieno[2,3-c]pyran-3-carboxamido)ethyl)benzoic Acid]	< 0.1	0.1 to 1	> 10	> 10	> 10	> 100	> 100	> 100	> 100	> 100	> 100
C[C@H](NC(=O)c1c(NCc2ccc(C(F)(F)F)cc2)sc2c1CCOC2)c1ccc(C(=O)O)cc1 [YJ121, (S)-4-(1-(2-((4-(trifluoromethyl)benzyl)amino)-5,7-dihydro-4H-thieno[2,3-c]pyran-3-carboxamido)ethyl)benzoic Acid]	< 0.1	< 0.1	1 to 10	1 to 10	1 to 10	10 to 100	10 to 100	10 to 100	10 to 100	10 to 100	10 to 100
C[C@H](NC(=O)c1c(Cc2ccc(F)c(F)c2)sc2c1CCOC2)c1ccc(C(=O)O)cc1 [YJ127, (S)-4-(1-(2-(3,4-difluorobenzyl)-4,7-dihydro-5H-thieno[2,3-c]pyran-3-carboxamido)ethyl)benzoic Acid]	< 0.1										
C[C@H](NC(=O)c1c(CCc2ccc(C(F)(F)F)cc2)sc2c1CCOC2)c1ccc(C(=O)O)cc1 [YJ111, (S)-4-(1-(2-(4-(trifluoromethyl)phenethyl)-5,7-dihydro-4H-thieno[2,3-c]pyran-3-carboxamido)ethyl)benzoic Acid]	< 0.1	< 0.1									
C[C@H](NC(=O)c1c(CCc2ccc(F)cc2)sc2c1CC(C)(C)OC2)c1ccc(C(=O)O)cc1 [YJ110, (S)-4-(1-(2-(4-fluorophenethyl)-5,5-dimethyl-5,7-dihydro-4H-thieno[2,3-c]pyran-3-carboxamido)ethyl)benzoic Acid]	< 0.1	< 0.1	> 10	> 10	> 10	> 100	> 100	> 100	> 100	> 100	> 100
C[C@H](NC(=O)c1c(C#Cc2ccc(F)cc2)sc2c1CCOC2)c1ccc(C(=O)O)cc1 [YJ101, (S)-4-(1-(2-((4-fluorophenyl)ethynyl)-5,7-dihydro-4H-thieno[2,3-c]pyran-3-carboxamido)ethyl)benzoic Acid]		0.1 to 1	> 10	> 10	> 10	> 100	> 100	> 100	> 100	> 100	> 100
C[C@H](NC(=O)c1c(CCc2ccc(F)cc2)sc2c1CCCC2)c1ccc(C(=O)O)cc1 [YJ108, (S)-4-(1-(2-(4-fluorophenethyl)-4,5,6,7-tetrahydrobenzo[b]thiophene-3-carboxamido)ethyl)benzoic Acid]	< 0.1	< 0.1	> 10	> 10	> 10	> 100	> 100	> 100	> 100	> 100	> 100
O=C(NCC1CCC(C(=O)O)CC1)c1c(Cc2ccc(F)cc2)sc2c1CCOC2 (centres unmarked) [YJ130, 4-((2-(4-fluorobenzyl)-4,7-dihydro-5H-thieno[2,3-c]pyran-3-carboxamido)methyl)cyclohexane-1-carboxylic Acid]	< 0.1	0.1 to 1									
C[C@H](NC(=O)c1c(CCc2ccc(F)cc2)sc2c1CCC2)c1ccc(C(=O)O)cc1 [YJ109, (S)-4-(1-(2-(4-fluorophenethyl)-5,6-dihydro-4H-cyclopenta[b]thiophene-3-carboxamido)ethyl)benzoic Acid]		< 0.1				> 100	> 100	> 100	> 100	> 100	> 100
Nc1ccn([C@@H]2O[C@H](CO)[C@@H](O)C2(F)F)c(=O)n1 [gemcitabine, reference compound]						0.0053 ± 0.0002	0.0051 ± 0.0001		0.016 ± 0.0001		0.0726 ± 0.0003
COc1ccc(Cc2sc3c(c2C(=O)N[C@@H](C)c2ccc(C(=O)O)cc2)CCOC3)cc1 [YJ128, (S)-4-(1-(2-(4-methoxybenzyl)-4,7-dihydro-5H-thieno[2,3-c]pyran-3-carboxamido)ethyl)benzoic Acid]	< 0.1										
C[C@H](NC(=O)c1c(Cc2cccc(F)c2)sc2c1CCOC2)c1ccc(C(=O)O)cc1 [YJ123, (S)-4-(1-(2-(3-fluorobenzyl)-4,7-dihydro-5H-thieno[2,3-c]pyran-3-carboxamido)ethyl)benzoic Acid]	< 0.1										
C[C@H](NC(=O)c1c(C#Cc2ccc(F)cc2)sc2c1CC(C)(C)OC2)c1ccc(C(=O)O)cc1 [YJ105, (S)-4-(1-(2-((4-fluorophenyl)ethynyl)-5,5-dimethyl-5,7-dihydro-4H-thieno[2,3-c]pyran-3-carboxamido)ethyl)benzoic Acid]	0.1 to 1										
C[C@H](NC(=O)c1c(Cc2cccc(Cl)c2)sc2c1CCOC2)c1ccc(C(=O)O)cc1 [YJ126, (S)-4-(1-(2-(3-chlorobenzyl)-4,7-dihydro-5H-thieno[2,3-c]pyran-3-carboxamido)ethyl)benzoic Acid]	< 0.1										
C[C@H](NC(=O)c1c(C#Cc2ccc(F)cc2)sc2c1CCC2)c1ccc(C(=O)O)cc1 [YJ102, (S)-4-(1-(2-((4-fluorophenyl)ethynyl)-5,6-dihydro-4H-cyclopenta[b]thiophene-3-carboxamido)ethyl)benzoic Acid]	< 0.1	< 0.1									
COc1ccc(CCc2sc3c(c2C(=O)N[C@@H](C)c2ccc(C(=O)O)cc2)CCOC3)cc1 [YJ122, (S)-4-(1-(2-(4-methoxyphenethyl)-4,7-dihydro-5H-thieno[2,3-c]pyran-3-carboxamido)ethyl)benzoic Acid]	< 0.1										
